# Laboratory results: ChEMBL document CHEMBL1909046, “DrugMatrix in vitro pharmacology data”
# Assays:
# [1] = target: T1, C-C chemokine receptor type 4 (Homo sapiens, UniProt P51679); assay type: cell membranes, Membrane; details: chem-1; also: in other assays of this panel Not Active means under 50% inhibition at 10 µM
# T1 sequence (P51679 whole entry): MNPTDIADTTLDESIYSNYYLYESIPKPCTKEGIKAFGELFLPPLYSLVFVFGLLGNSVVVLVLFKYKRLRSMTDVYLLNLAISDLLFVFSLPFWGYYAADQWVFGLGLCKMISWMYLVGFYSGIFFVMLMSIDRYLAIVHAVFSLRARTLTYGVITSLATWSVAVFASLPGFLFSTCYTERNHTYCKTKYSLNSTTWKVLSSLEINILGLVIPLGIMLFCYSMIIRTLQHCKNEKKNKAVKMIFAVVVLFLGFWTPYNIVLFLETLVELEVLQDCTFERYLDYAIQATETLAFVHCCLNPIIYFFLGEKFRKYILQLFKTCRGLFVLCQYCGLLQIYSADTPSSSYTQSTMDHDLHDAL
# [2] = target: T2, Cholecystokinin receptor type A (Homo sapiens, UniProt P32238); assay type: cell membranes, Membrane; details: 1321-n1; also: in other assays of this panel Not Active means under 50% inhibition at 10 µM
# T2 sequence (P32238 whole entry): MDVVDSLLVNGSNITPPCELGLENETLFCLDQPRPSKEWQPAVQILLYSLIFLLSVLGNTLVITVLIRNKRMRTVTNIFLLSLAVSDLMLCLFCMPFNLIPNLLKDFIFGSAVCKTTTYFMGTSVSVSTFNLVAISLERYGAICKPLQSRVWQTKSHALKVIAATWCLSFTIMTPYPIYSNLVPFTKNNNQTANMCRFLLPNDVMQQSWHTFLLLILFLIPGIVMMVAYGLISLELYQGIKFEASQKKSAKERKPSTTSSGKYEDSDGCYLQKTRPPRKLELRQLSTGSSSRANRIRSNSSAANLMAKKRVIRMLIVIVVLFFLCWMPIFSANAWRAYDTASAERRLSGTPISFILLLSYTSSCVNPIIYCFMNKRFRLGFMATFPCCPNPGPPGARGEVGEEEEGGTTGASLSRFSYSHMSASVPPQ
# [3] = target: T3, Alpha-1A adrenergic receptor (Rattus norvegicus, UniProt P43140); test: DRUGMATRIX: Alpha-1A adrenergic receptor radioligand binding (ligand: prazosin); assay type: cell membranes, Wistar, Submaxillary gland, Membrane; details: Not Active = under 50% inhibition at 10 µM; for Ki: read-out: Ki
# T3 sequence (P43140 whole entry): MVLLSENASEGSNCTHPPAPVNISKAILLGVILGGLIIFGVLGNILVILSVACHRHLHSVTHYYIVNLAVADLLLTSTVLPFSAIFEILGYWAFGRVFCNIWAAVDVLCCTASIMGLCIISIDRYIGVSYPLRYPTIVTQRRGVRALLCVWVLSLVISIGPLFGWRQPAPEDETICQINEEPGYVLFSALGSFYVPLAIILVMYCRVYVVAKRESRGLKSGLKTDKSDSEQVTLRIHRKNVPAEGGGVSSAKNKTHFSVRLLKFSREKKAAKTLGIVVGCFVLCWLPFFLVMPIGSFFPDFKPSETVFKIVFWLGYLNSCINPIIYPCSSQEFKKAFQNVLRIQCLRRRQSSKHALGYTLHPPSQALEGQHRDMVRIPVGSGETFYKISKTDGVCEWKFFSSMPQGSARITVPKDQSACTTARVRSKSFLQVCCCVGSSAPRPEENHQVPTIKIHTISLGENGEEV
# [4] = target: T4, C-X-C chemokine receptor type 1 (Homo sapiens, UniProt P25024); also: in other assays of this panel Not Active means under 50% inhibition at 10 µM
# T4 sequence (P25024 whole entry): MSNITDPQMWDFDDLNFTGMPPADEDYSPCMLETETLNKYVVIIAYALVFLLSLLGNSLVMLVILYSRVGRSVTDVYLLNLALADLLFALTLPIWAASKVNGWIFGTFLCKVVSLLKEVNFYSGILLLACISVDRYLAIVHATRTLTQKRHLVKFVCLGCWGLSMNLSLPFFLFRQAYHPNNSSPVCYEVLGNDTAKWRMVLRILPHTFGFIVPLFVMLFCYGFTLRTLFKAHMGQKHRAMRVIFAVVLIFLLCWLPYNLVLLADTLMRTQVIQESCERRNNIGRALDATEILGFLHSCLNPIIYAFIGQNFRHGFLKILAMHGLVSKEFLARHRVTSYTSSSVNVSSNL
# [5] = target: 5-hydroxytryptamine receptor 1B (Rattus norvegicus, UniProt P28564); assay type: cell membranes, Wistar, Cerebral cortex, Membrane; also: in other assays of this panel Not Active means under 50% inhibition at 10 µM
# [6] = DRUGMATRIX: Calcium Channel Type L, Benzothiazepine radioligand binding (ligand: [3H] Diltiazem); assay type: cell membranes, Rattus norvegicus, Wistar, Brain, Membrane; details: Not Active = under 50% inhibition at 10 µM
# [7] = target: C-C chemokine receptor type 5 (Homo sapiens, UniProt P51681); assay type: cell membranes, Membrane; details: hek293; also: in other assays of this panel Not Active means under 50% inhibition at 10 µM
# C-C chemokine receptor type 5, sequence (P51681 whole entry): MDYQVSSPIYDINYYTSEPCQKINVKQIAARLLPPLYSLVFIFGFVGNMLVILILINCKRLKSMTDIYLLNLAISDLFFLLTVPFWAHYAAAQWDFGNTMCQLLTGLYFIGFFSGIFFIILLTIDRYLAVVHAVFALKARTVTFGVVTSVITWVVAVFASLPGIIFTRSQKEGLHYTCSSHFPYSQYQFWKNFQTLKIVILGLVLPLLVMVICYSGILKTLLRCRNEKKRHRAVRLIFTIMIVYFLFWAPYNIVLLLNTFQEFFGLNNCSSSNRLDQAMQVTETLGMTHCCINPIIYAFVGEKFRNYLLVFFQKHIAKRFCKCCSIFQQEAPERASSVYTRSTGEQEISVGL
# 5-hydroxytryptamine receptor 1B, sequence (P28564 whole entry): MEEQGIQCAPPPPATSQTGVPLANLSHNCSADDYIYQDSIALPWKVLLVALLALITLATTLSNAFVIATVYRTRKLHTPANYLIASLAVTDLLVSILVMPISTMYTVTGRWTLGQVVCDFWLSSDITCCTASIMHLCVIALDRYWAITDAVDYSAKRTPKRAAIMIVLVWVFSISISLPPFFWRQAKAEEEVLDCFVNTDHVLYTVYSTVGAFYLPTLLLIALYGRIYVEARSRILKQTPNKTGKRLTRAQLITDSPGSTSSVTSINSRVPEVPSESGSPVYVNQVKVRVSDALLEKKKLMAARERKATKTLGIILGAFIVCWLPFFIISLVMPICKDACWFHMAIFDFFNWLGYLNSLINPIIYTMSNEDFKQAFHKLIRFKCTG
Structure (SMILES),IC50 [1],IC50 [2],IC50 [3],IC50 [4],IC50 [5],IC50 [6],Ki [6],IC50 [7],IC50 ([3]; read-out: IC50) [nM],Ki [3] [nM],IC50 ([6]; read-out: IC50) [nM],Ki ([6]; read-out: Ki) [nM]
CN(C)[C@@H]1C(O)=C(C(N)=O)C(=O)[C@@]2(O)C(O)=C3C(=O)c4c(O)ccc(Cl)c4[C@@](C)(O)[C@H]3C[C@@H]12 [CHLORTETRACYCLINE],Not Active,Not Active,Not Active,Not Active,Not Active,Not Active,Not Active,Not Active,,,,
CN/C(=N\CCSCc1nc[nH]c1C)NC#N [CIMETIDINE],Not Active,Not Active,Not Active,Not Active,Not Active,Not Active,Not Active,Not Active,,,,
COc1cc(N)c(Cl)cc1C(=O)NC1CCN(CCCOc2ccc(F)cc2)CC1OC (stereo not drawn) [CISAPRIDE],Not Active,Not Active,,Not Active,Not Active,,,Not Active,120,49,802,713
CCC(=O)O[C@]1(C(=O)CCl)[C@@H](C)C[C@H]2[C@@H]3CCC4=CC(=O)C=C[C@]4(C)[C@@]3(F)[C@@H](O)C[C@@]21C [CLOBETASOL PROPIONATE],Not Active,Not Active,Not Active,Not Active,Not Active,Not Active,Not Active,Not Active,,,,
O=C1CN=C(c2ccccc2Cl)c2cc([N+](=O)[O-])ccc2N1 [CLONAZEPAM],Not Active,Not Active,Not Active,Not Active,Not Active,Not Active,Not Active,Not Active,,,,
Nc1ccn([C@@H]2O[C@H](CO)[C@@H](O)[C@@H]2O)c(=O)n1 [CYTARABINE],Not Active,Not Active,Not Active,Not Active,Not Active,Not Active,Not Active,Not Active,,,,
C[C@@H]1C[C@H]2[C@@H]3CCC4=CC(=O)C=C[C@]4(C)[C@@]3(F)[C@@H](O)C[C@]2(C)[C@H]1C(=O)CO [DESOXIMETASONE],Not Active,Not Active,Not Active,Not Active,Not Active,Not Active,Not Active,Not Active,,,,
C[C@@H]1C[C@H]2[C@@H]3CCC4=CC(=O)C=C[C@]4(C)[C@@]3(F)[C@@H](O)C[C@]2(C)[C@@]1(O)C(=O)CO [DEXAMETHASONE],Not Active,Not Active,Not Active,Not Active,Not Active,Not Active,Not Active,Not Active,,,,
CN(C)CC[C@@H](c1ccc(Cl)cc1)c1ccccn1 [DEXCHLORPHENIRAMINE],Not Active,Not Active,Not Active,Not Active,Not Active,,,Not Active,,,6130,5450
C[C@@H]1CC[C@@]2(OC1)O[C@H]1[C@@H](O)[C@H]3[C@@H]4CC[C@H]5C[C@@H](O[C@@H]6O[C@H](CO)[C@H](O[C@@H]7O[C@H](CO)C(O)[C@H](O[C@@H]8OC[C@@H](O)[C@H](O)[C@H]8O)[C@H]7O[C@@H]7O[C@H](CO)[C@H](O)[C@H](O[C@@H]8O[C@H](CO)[C@@H](O)[C@H](O)[C@H]8O)[C@H]7O)[C@H](O)[C@H]6O)[C@H](O)C[C@]5(C)[C@H]4CC[C@]3(C)[C@H]1[C@@H]2C (stereo partly drawn) [DIGITONIN],Not Active,Not Active,Not Active,Not Active,Not Active,Not Active,Not Active,Not Active,,,,
OC(CCCN1CCCCC1)(c1ccccc1)c1ccccc1 [DIPHENIDOL],Not Active,Not Active,Not Active,Not Active,Not Active,Not Active,Not Active,Not Active,,,,
C[C@H]1O[C@@H](n2cc(F)c(=O)[nH]c2=O)[C@H](O)[C@@H]1O [DOXIFLURIDINE],Not Active,Not Active,Not Active,Not Active,Not Active,Not Active,Not Active,Not Active,,,,
Cn1c(=O)c2c(ncn2CC(O)CO)n(C)c1=O (stereo not drawn) [DYPHYLLINE],Not Active,Not Active,Not Active,Not Active,Not Active,Not Active,Not Active,Not Active,,,,
CC[C@H]1CN2CCc3cc(OC)c(OC)cc3[C@@H]2C[C@@H]1C[C@H]1NCCc2cc(OC)c(OC)cc21 [EMETINE],Not Active,Not Active,,Not Active,Not Active,,,Not Active,6530,2640,2360,2090
COC(=O)CCc1ccc(OCC(O)CNC(C)C)cc1 (stereo not drawn) [ESMOLOL],Not Active,Not Active,Not Active,Not Active,Not Active,Not Active,Not Active,Not Active,,,,
CCC1(C)CC(=O)NC1=O (stereo not drawn) [ETHOSUXIMIDE],Not Active,Not Active,Not Active,Not Active,Not Active,Not Active,Not Active,Not Active,,,,
C#C[C@]1(OC(C)=O)CC[C@H]2[C@@H]3CCC4=C[C@@H](OC(C)=O)CC[C@@H]4[C@H]3CC[C@@]21C [ETHYNODIOL DIACETATE],Not Active,Not Active,Not Active,Not Active,Not Active,Not Active,Not Active,Not Active,,,,
COc1cc([C@@H]2c3cc4c(cc3[C@@H](O[C@@H]3O[C@@H]5CO[C@@H](C)O[C@H]5[C@H](O)[C@H]3O)[C@H]3COC(=O)[C@H]23)OCO4)cc(OC)c1O [ETOPOSIDE],Not Active,Not Active,Not Active,Not Active,Not Active,Not Active,Not Active,Not Active,,,,
C=CCc1ccc(O)c(OC)c1 [EUGENOL],Not Active,Not Active,Not Active,Not Active,Not Active,Not Active,Not Active,Not Active,,,,
CC(C(=O)O)c1cccc(Oc2ccccc2)c1 (stereo not drawn) [FENOPROFEN],Not Active,Not Active,Not Active,Not Active,Not Active,Not Active,Not Active,Not Active,,,,
CC(C)(C)NC(=O)[C@H]1CC[C@H]2[C@@H]3CC[C@H]4NC(=O)C=C[C@]4(C)[C@H]3CC[C@]12C [FINASTERIDE],Not Active,Not Active,Not Active,Not Active,Not Active,Not Active,Not Active,Not Active,,,,
COc1ccc2c3c1O[C@H]1C[C@@H](O)C=C[C@@]31CCN(C)C2 [GALANTAMINE],Not Active,Not Active,Not Active,Not Active,Not Active,Not Active,Not Active,Not Active,,,,
